In ChEMBL document CHEMBL1122770, “Quantitative structure-activity relationship of insect juvenile hormone mimetic compounds” (J Med Chem, 1984):

What was measured:
[1] = Partition coefficient (logP); type: physicochemical; details: octanol/water; read-out: logP
Tenebrio molitor [2] = test: Tested for juvenile hormone mimetic activity in Tenebrio molitor (yellow mealworm) excluding from the analysis for activity against Tenebrio molitor; type: functional; design: unit not given here
Tenebrio molitor [3] = test: Tested for juvenile hormone mimetic activity in Tenebrio molitor (yellow mealworm) excluding from the analysis for activity against […]); type: functional
Tenebrio molitor [4] = test: Tested for juvenile hormone mimetic activity in Tenebrio molitor (yellow mealworm) excluding from the analysis for activity against Aedes aegypti, Tenebrio molitor
Tenebrio molitor [5] = test: Juvenile hormone mimetic activity in Tenebrio molitor (yellow mealworm); type: functional; design: unit not given here
Tenebrio molitor [6] = test: Tested for juvenile hormone mimetic activity in Tenebrio molitor (yellow mealworm) excluding from the analysis for activity against Anopheles aegypti; type: functional

SMILES	logP [1]	pI50 (Tenebrio molitor [5])	further results
CC(/C=C/CC(C)CCCC(C)C)=C\C(=O)OCc1ccccc1 (stereo unspecified)	7.87		pI50 (Tenebrio molitor [2]): <0.52
CCOC(=O)/C=C(C)/C=C/CC(C)CCCC(C)(C)O (stereo unspecified)	4.65		pI50 (Tenebrio molitor [3]): ~0.54 uM pupa-1
CCNC(=O)/C=C(C)/C=C/CC(C)CCCC(C)(C)OC (stereo unspecified)	4.04		pI50 (Tenebrio molitor [2]): 5.95
CC(/C=C/CC(C)CCCC(C)C)=C\C(=O)C1N=N1 (stereo unspecified)			pI50 (Tenebrio molitor [4]): 5.15 uM pupa-1
CC(/C=C/CC(C)CCCC(C)C)=C\C(=O)OC(C)(C)C (stereo unspecified)	7.56		pI50 (Tenebrio molitor [4]): 1.01 uM pupa-1
CCNC(=O)OC(C)(C)CCCC(C)C/C=C/C(C)=C/C(=O)OCC (stereo unspecified)	5.65		pI50 (Tenebrio molitor [2]): <0.55
CCOC(=O)/C=C(C)/C=C/CC(C)CCC(O)C(C)C (stereo unspecified)	4.65		pI50 (Tenebrio molitor [2]): <0.45
CCC(=O)/C=C(C)/C=C/CC(C)CCCC(C)(C)O (stereo unspecified)	4.18		pI50 (Tenebrio molitor [2]): 6.04
CC(/C=C/CC(C)CCCC(C)C)=C\C(=O)O (stereo unspecified)	5.95		pI50 (Tenebrio molitor [2]): <0.45
CCOC(=O)/C=C(C)/C=C/CC(C)CCC(=O)C(C)C (stereo unspecified)	4.3		pI50 (Tenebrio molitor [2]): <0.45
COC(C)(C)CCCC(C)C/C=C/C(C)=C/C(=O)C1N=N1 (stereo unspecified)			pI50 (Tenebrio molitor [4]): 6.12 uM pupa-1
C#CCCOC(=O)/C=C(C)/C=C/CC(C)CCCC(C)(C)OC (stereo unspecified)	5.2		pI50 (Tenebrio molitor [2]): <1.11
CCN(CC)C(=O)/C=C(C)/C=C/CC(C)CCCC(C)C (stereo unspecified)	6.02	4.63	
CCOC(=O)/C=C(C)/C=C/CC(C)CCC(OC)C(C)C (stereo unspecified)	5.54	2.54	
CCC(C)OC(=O)/C=C(C)/C=C/CC(C)CCCC(C)(C)OC (stereo unspecified)	6.49	4.67	
CC(/C=C/CC(C)CCCC(C)C)=C\C(=O)CC(C)C (stereo unspecified)	7.22	3.14	
CCNC(=O)/C=C(C)/C=C/CC(C)CCCC(C)(C)O (stereo unspecified)	3.15		pI50 (Tenebrio molitor [6]): 5.22 uM pupa-1

SMILES	logP [1]	pI50 (Tenebrio molitor [5])	further results
CCN(CC)C(=O)/C=C(C)/C=C/CC(C)CCC=C(C)C (stereo unspecified)	5.47	1.7	
COC(C)(C)CCCC(C)C/C=C/C(C)=C/C(=O)OC1CCCC1 (stereo unspecified)	7.01	4.32	
COC(CCC(C)C/C=C/C(C)=C/C(=O)OC(C)C)C(C)C (stereo unspecified)	5.95	3.82	
CCOC(C)(C)CCCC(C)C/C=C/C(C)=C/C(=O)OC(C)C (stereo unspecified)	6.49	4.51	
CC(/C=C/CC(C)CCCC(C)C)=C\C(=O)NCC(C)C (stereo unspecified)	6.19	0.62	
CC(/C=C/CC(C)CCCC(C)C)=C\C(=O)N(C)C (stereo unspecified)	4.94	3.7	
C=CCOC(=O)/C=C(C)/C=C/CC(C)CCCC(C)C (stereo unspecified)	6.73	3.51	
CCC(=O)/C=C(C)/C=C/CC(C)CCCC(C)C (stereo in doubt; 83)	6.27	4.89	
C#CCSC(=O)/C=C(C)/C=C/CC(C)CCCC(C)(C)OC (stereo unspecified)	5.9	2.15	
COC(C)(C)C(O)CCC(C)C/C=C/C(C)=C/C(=O)OC(C)C (stereo unspecified)	3.86	2.61	
COC(CCC(C)C/C=C/C(C)=C/C(=O)OC(C)C)C(C)(C)OC (stereo unspecified)	4.75	3.88	
C=C(C)CCCC(C)C/C=C/C(C)=C/C(=O)OC(C)C (stereo unspecified)	6.6	4.1	
CC(/C=C/CC(C)CCCC(C)(C)Cl)=C\C(=O)OC(C)C (stereo unspecified)	6.85	3.75	
CCCOC(=O)/C=C(C)/C=C/CC(C)CCCC(C)C (stereo unspecified)	7.28	2.71	
CCOC(=O)/C=C(C)/C=C/CC(C)CCC(SCC)C(C)C (stereo unspecified)	6.9		pI50 (Tenebrio molitor [2]): 1.51
COC(C)(C)CCCC(C)C/C=C/C(C)=C/C(N)=O (stereo unspecified)	3.52	0.05	
C=CCOC(=O)/C=C(C)/C=C/CC(C)CCCC(C)(C)OC (stereo unspecified)	5.53	1.41	
